Results reported in PubChem BioAssay AID330 (DTP/NCI, 2004).
Where “and” joins values, the source holds several entries; their conditions need not be identical. Equal values may be shown once. Inconclusive results and toxic doses are left out. The calls were made as follows: active = survival T/C of 150% or more; inactive = T/C below 125% in these data.

Test system: P388 leukemia ip, CD2F1 mice, survival T/C
Assay: NCI In Vivo Anticancer Drug Screen. Data for tumor model P388 Leukemia (intraperitoneal) in CD2F1 (CDF1) mice
Conditions: endpoint: median survival time, higher = longer survival
In short: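 Mice carrying the transplanted tumor received test compound or vehicle. Survival was recorded in each group, and the value is the treated-group measurement divided by that of the vehicle-treated control group.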

[1] = dose: 100.0 mg/kg/injection, schedule: Q01DX001 (ip), vehicle: saline with Tween-80
[2] = dose: 200.0 mg/kg/injection, schedule: Q01DX001 (ip), vehicle: saline with Tween-80
[3] = dose: 400.0 mg/kg/injection, schedule: Q01DX001 (ip), vehicle: saline with Tween-80
[4] = dose: 100.0 mg/kg/injection, schedule: Q04DX003 (ip), vehicle: saline with Tween-80
[5] = dose: 200.0 mg/kg/injection, schedule: Q04DX003 (ip), vehicle: saline with Tween-80
[6] = dose: 400.0 mg/kg/injection, schedule: Q04DX003 (ip), vehicle: saline with Tween-80
[7] = dose: 6.25 mg/kg/injection, schedule: Q01DX009 (ip), vehicle: saline with Tween-80
[8] = dose: 12.5 mg/kg/injection, schedule: Q01DX009 (ip), vehicle: saline with Tween-80
[9] = dose: 25.0 mg/kg/injection, schedule: Q01DX009 (ip), vehicle: saline with Tween-80
[10] = dose: 12.5 mg/kg/injection, schedule: Q01DX009 (ip), vehicle: Klucel (hydroxypropylcellulose) (HPC)
[11] = dose: 50.0 mg/kg/injection, schedule: Q01DX009 (ip), vehicle: Klucel (hydroxypropylcellulose) (HPC)
[12] = dose: 100.0 mg/kg/injection, schedule: Q01DX009 (ip), vehicle: Klucel (hydroxypropylcellulose) (HPC)

Measured: T/C

CN(C)CCCNC(=O)c1ccc2c(c1O)C(=O)c1ccccc1C2=O
inactive: dose: 12.5 mg/kg/injection, schedule: Q01DX005 (ip), vehicle: saline 105 % of control | dose: 25.0 mg/kg/injection, schedule: Q01DX005 (ip), vehicle: saline 109 % of control | dose: 50.0 mg/kg/injection, schedule: Q01DX005 (ip), vehicle: saline 114 % of control

O=C1CCC2(CC1)CCc1ccccc1C2=O
inactive: [1] 103 % of control | [2] 97 % of control | [3] 103 % of control

CCN(CC)CCn1cnc2c(=S)[nH]c(=S)[nH]c21
inactive: [1] 95 % of control | [2] 97 % of control | [3] 97 % of control

O=Nc1c2ccccc2c(NO)c2ccccc12
inactive: dose: 100.0 mg/kg/injection, schedule: Q04DX002 (ip), vehicle: saline with Tween-80 94 % of control | dose: 200.0 mg/kg/injection, schedule: Q04DX002 (ip), vehicle: saline with Tween-80 92 % of control | dose: 400.0 mg/kg/injection, schedule: Q04DX002 (ip), vehicle: saline with Tween-80 98 % of control

CCOC(=O)C12C=CC(=O)NC1(OC)OC(C)(C)C2 (stereo not drawn)
inactive: dose: 20.0 mg/kg/injection, schedule: Q01DX001 (ip), vehicle: Klucel (hydroxypropylcellulose) (HPC) 95 % of control | dose: 40.0 mg/kg/injection, schedule: Q01DX001 (ip), vehicle: Klucel (hydroxypropylcellulose) (HPC) 93 % of control | dose: 80.0 mg/kg/injection, schedule: Q01DX001 (ip), vehicle: Klucel (hydroxypropylcellulose) (HPC) 89 % of control

COc1cccc2c1C(=O)c1c(O)c3c(c(O)c1C2=O)CC(O)(C(=O)CO)CC3OC1CC2C(OC3COCC(C#N)N32)C(C)O1 (stereo not drawn)
inactive: dose: 0.5 mg/kg/injection, schedule: Q04DX003 (ip), vehicle: saline with Tween-80 102 % of control and 120 % of control | dose: 1.0 mg/kg/injection, schedule: Q04DX003 (ip), vehicle: saline with Tween-80 116 % of control | dose: 4.0 mg/kg/injection, schedule: Q04DX003 (ip), vehicle: saline with Tween-80 113 % of control

O=C1NC(CN2CCCCC2)C(=O)NC1CN1CCCCC1 (stereo not drawn)
inactive: dose: 60.0 mg/kg/injection, schedule: Q01DX005 (ip), vehicle: Klucel (hydroxypropylcellulose) (HPC) 89 % of control | dose: 120.0 mg/kg/injection, schedule: Q01DX005 (ip), vehicle: Klucel (hydroxypropylcellulose) (HPC) 92 % of control

Cc1ccc(S(=O)(=O)C(Cl)Cl)cc1
inactive: dose: 50.0 mg/kg/injection, schedule: Q04DX003 (ip), vehicle: saline with Tween-80 100 % of control and 90 % of control and 93 % of control | [4] 111 % of control and 118 % of control and 93 % of control | [5] 104 % of control and 93 % of control | [6] 102 % of control

CCN1CC2c3cc(OC)c(OC)cc3CC(c3ccccc3)C2C1 (stereo not drawn)
inactive: [7] 120 % of control | [8] 120 % of control | [9] 100 % of control

CCOC(=O)C12C=CC(=O)NC1(OC)OC(C)C2 (stereo not drawn)
inactive: dose: 100.0 mg/kg/injection, schedule: Q01DX001 (ip), vehicle: Klucel (hydroxypropylcellulose) (HPC) 90 % of control | dose: 200.0 mg/kg/injection, schedule: Q01DX001 (ip), vehicle: Klucel (hydroxypropylcellulose) (HPC) 94 % of control | dose: 400.0 mg/kg/injection, schedule: Q01DX001 (ip), vehicle: Klucel (hydroxypropylcellulose) (HPC) 93 % of control

Nc1cc(=O)n(Cc2ccccc2)c(N)c1C(=O)NCc1ccccc1
inactive: dose: 60.0 mg/kg/injection, schedule: Q01DX005 (ip), vehicle: saline with Tween-80 106 % of control | dose: 120.0 mg/kg/injection, schedule: Q01DX005 (ip), vehicle: saline with Tween-80 98 % of control | dose: 240.0 mg/kg/injection, schedule: Q01DX005 (ip), vehicle: saline with Tween-80 100 % of control

Nc1ncnc2c1ccn2COCCO
inactive: dose: 50.0 mg/kg/injection, schedule: Q01DX005 (ip), vehicle: distilled water + alcohol 100 % of control | dose: 100.0 mg/kg/injection, schedule: Q01DX005 (ip), vehicle: distilled water + alcohol 101 % of control | dose: 200.0 mg/kg/injection, schedule: Q01DX005 (ip), vehicle: distilled water + alcohol 99 % of control

C/C=C\C#C/C=C1/C=CC(=O)O1
inactive: [10] 105 % of control | dose: 25.0 mg/kg/injection, schedule: Q01DX009 (ip), vehicle: Klucel (hydroxypropylcellulose) (HPC) 105 % of control | [11] 108 % of control | [12] 108 % of control

C1=[N+]2CCCC2Cc2ccc3ccccc3c21 (stereo not drawn)
inactive: dose: 12.5 mg/kg/injection, schedule: Q04DX003 (ip), vehicle: saline 100 % of control | dose: 25.0 mg/kg/injection, schedule: Q04DX003 (ip), vehicle: saline 103 % of control | dose: 50.0 mg/kg/injection, schedule: Q04DX003 (ip), vehicle: saline 100 % of control

CCc1cc(/C=C2/OC(=O)c3ccccc32)cc(CC)c1O
inactive: dose: 100.0 mg/kg/injection, schedule: Q04DX002 (ip), vehicle: saline 101 % of control | dose: 200.0 mg/kg/injection, schedule: Q04DX002 (ip), vehicle: saline 100 % of control | dose: 400.0 mg/kg/injection, schedule: Q04DX002 (ip), vehicle: saline 100 % of control

COc1cccc2c1C(=O)c1c(O)c3c(c(O)c1C2=O)CC(O)(C(C)=O)CC3OC1CC([N+](C)(C)C)C(O)C(C)O1 (stereo not drawn)
inactive: dose: 1.56 mg/kg/injection, schedule: Q01DX009 (ip), vehicle: water 101 % of control | dose: 3.12 mg/kg/injection, schedule: Q01DX009 (ip), vehicle: water 90 % of control | dose: 3.13 mg/kg/injection, schedule: Q01DX009 (ip), vehicle: water 113 % of control | dose: 6.25 mg/kg/injection, schedule: Q01DX009 (ip), vehicle: water 118 % of control | dose: 12.5 mg/kg/injection, schedule: Q01DX009 (ip), vehicle: water 110 % of control and 112 % of control | dose: 25.0 mg/kg/injection, schedule: Q01DX009 (ip), vehicle: water 111 % of control and 120 % of control

CCOC(=O)CCC(Br)(Br)Br
inactive: [11] 100 % of control | [12] 100 % of control | dose: 200.0 mg/kg/injection, schedule: Q01DX009 (ip), vehicle: Klucel (hydroxypropylcellulose) (HPC) 97 % of control

Cc1coc2c1C(OC(=O)C(C)C)C1(C)C(C)CCC(O)C1C2=O (stereo not drawn)
inactive: dose: 1.56 mg/kg/injection, schedule: Q01DX009 (ip), vehicle: saline with Tween-80 100 % of control | dose: 3.13 mg/kg/injection, schedule: Q01DX009 (ip), vehicle: saline with Tween-80 96 % of control | [7] 93 % of control | [10] 94 % of control | [8] 109 % of control | [11] 97 % of control | [12] 114 % of control

CC12CC1CCCC2OC(=O)c1cc([N+](=O)[O-])cc([N+](=O)[O-])c1 (stereo not drawn)
inactive: [4] 100 % of control | [5] 95 % of control | [6] 98 % of control

[N-]=[N+]=NCN1C(=O)C2C3C=CC(C2C1=O)C1C2C(=O)N(CN=[N+]=[N-])C(=O)C2C31 (stereo not drawn)
inactive: [9] 106 % of control | dose: 50.0 mg/kg/injection, schedule: Q01DX009 (ip), vehicle: saline with Tween-80 108 % of control | dose: 100.0 mg/kg/injection, schedule: Q01DX009 (ip), vehicle: saline with Tween-80 100 % of control | dose: 200.0 mg/kg/injection, schedule: Q01DX009 (ip), vehicle: saline with Tween-80 115 % of control

O=c1c2sc3ccccc3c2ncn1/N=C/c1ccc(Cl)cc1
inactive: dose: 50.0 mg/kg/injection, schedule: Q01DX005 (ip), vehicle: Klucel (hydroxypropylcellulose) (HPC) 105 % of control | dose: 100.0 mg/kg/injection, schedule: Q01DX005 (ip), vehicle: Klucel (hydroxypropylcellulose) (HPC) 96 % of control | dose: 200.0 mg/kg/injection, schedule: Q01DX005 (ip), vehicle: Klucel (hydroxypropylcellulose) (HPC) 88 % of control

C=CC[n+]1ccc2ccccc2c1
inactive: dose: 25.0 mg/kg/injection, schedule: Q01DX009 (ip), vehicle: saline sonified 90 % of control | dose: 50.0 mg/kg/injection, schedule: Q01DX009 (ip), vehicle: saline sonified 90 % of control | dose: 100.0 mg/kg/injection, schedule: Q01DX009 (ip), vehicle: saline sonified 95 % of control

NC(C(=O)O)C(=O)O
inactive: dose: 50.0 mg/kg/injection, schedule: Q01DX005 (ip), vehicle: saline with Tween-80 101 % of control | dose: 100.0 mg/kg/injection, schedule: Q01DX005 (ip), vehicle: saline with Tween-80 100 % of control | dose: 200.0 mg/kg/injection, schedule: Q01DX005 (ip), vehicle: saline with Tween-80 89 % of control
